Measurements: US20090270413A1, “DI-T-BUTYLPHENYL PIPERAZINES AS CALCIUM CHANNEL BLOCKERS” (priority 2008, published 2009)

Tests used:
Assay type in all cases: cell-based
[1] = target: T1, Cav3.2 (T-type channel alpha-1H) (Homo sapiens, UniProt O95180); experiment: T-type calcium channel voltage-clamp assay, Cav3.2; details: read-out: Cav 3.2 IC50
T1 construct: expressed in transfected cells; host or cells: HEK 293
Description: (§1) The T-type calcium channel blocking activity of the compounds of this invention may be readily determined using the methodology well known in the art described by Xia, et al., Assay and Drug Development Tech., 1 (5), 637-645 (2003).
(§2) In a typical experiment ion channel function from HEK 293 cells expressing the T-type channel alpha-1G, H, or I (CaV 3.1, 3.2, 3.3) is recorded to determine the activity of compounds in blocking the calcium current mediated by the T-type channel alpha-1G, H, or I (CaV 3.1, 3.2, 3.3). In this T-type calcium (Ca^2+) antagonist voltage-clamp assay calcium currents are elicited from the resting state of the human alpha-1G, H, or I (CaV 3.1, 3.2, 3.3) calcium channel as follows. Sequence information for T-type (Low-voltage activated) calcium channels are fully disclosed in e.g., U.S. Pat. No. 5,618,720, U.S. Pat. No. 5,686,241, U.S. Pat. No. 5,710,250,U.S. Pat. No. 5,726,035, U.S. Pat. No. 5,792,846, U.S. Pat. No. 5,846,757, U.S. Pat. No. 5,851,824, U.S. Pat. No. 5,874,236, U.S. Pat. No. 5,876,958, U.S. Pat. No. 6,013,474, U.S. Pat. No. 6,057,114, U.S. Pat. No. 6,096,514, WO 99/28342, and J. Neuroscience, 19 (6):1912-1921 (1999). Cells expressing the t-type channels were grown in H3D5 growth media which is comprised DMEM, 6% bovine calf serum (HYCLONE), 30 micromolar Verapamil, 200 microgram/ml Hygromycin B, 1× Penicillin/Streptomycin. Glass pipettes are pulled to a tip diameter of 1-2 micrometer on a pipette puller. The pipettes are filled with the intracellular solution and a chloridized silver wire is inserted along its length, which is then connected to the headstage of the voltage-clamp amplifier. Trypsinization buffer was 0.05% Trypsin, 0.53 mM EDTA. The extracellular recording solution consists of (mM): 130 mM NaCl, 4 mM KCl, 1 mM MgCl2, 2 mM CaCl2, 10 mM HEPES, 30 Glucose, pH 7.4. The internal solution consists of (mM): 135 mM CsMeSO4, 1 MgCl2, 10 CsCl, 5 EGTA, 10 HEPES, pH 7.4, or 135 mM CsCl, 2 MgCl2, 3 MgATP, 2 Na2ATP, 1 Na2GTP, 5 EGTA, 10 HEPES, pH 7.4. Upon insertion of the pipette tip into the bath, the series resistance is noted (acceptable range is between 1-4 megaohm). The junction potential between the pipette and bath solutions is zeroed on the amplifier. The cell is then patched, the patch broken, and, after compensation for series resistance (>=80%), the voltage protocol is applied while recording the whole cell Ca2+ current response. Voltage protocols: (1) −80 mV holding potential every 20 seconds pulse to −20 mV for 40 msec duration; the effectiveness of the drug in inhibiting the current mediated by the channel is measured directly from measuring the reduction in peak current amplitude initiated by the voltage shift from −80 mV to −20 mV; (2). −100 mV holding potential every 15 seconds pulse to −20 mV for 40 msec duration; the effectiveness of the drug in inhibiting the current mediated by the channel is measured directly from measuring the reduction in peak current amplitude initiated by the shift in potential from −100 mV to […]. The difference in block at the two holding potentials was used to determine the effect of drug at differing levels of inactivation induced by the level of resting state potential of the cells. After obtaining control baseline calcium currents, extracellular solutions containing increasing concentrations of a test compound are washed on. Once steady state inhibition at a given compound concentration is reached, a higher concentration of compound is applied. % inhibition of the peak inward control Ca2+ current during the depolarizing step to −20 mV is plotted as a function of compound concentration.

[2] = target: T2, Cav3.1 (T-type channel alpha-1G) (Homo sapiens, UniProt O43497); experiment: T-type calcium channel voltage-clamp assay, Cav3.1; details: read-out: Cav 3.1 IC50
T2 construct: expressed in transfected cells; host or cells: HEK 293
T2 sequence (O43497 whole entry): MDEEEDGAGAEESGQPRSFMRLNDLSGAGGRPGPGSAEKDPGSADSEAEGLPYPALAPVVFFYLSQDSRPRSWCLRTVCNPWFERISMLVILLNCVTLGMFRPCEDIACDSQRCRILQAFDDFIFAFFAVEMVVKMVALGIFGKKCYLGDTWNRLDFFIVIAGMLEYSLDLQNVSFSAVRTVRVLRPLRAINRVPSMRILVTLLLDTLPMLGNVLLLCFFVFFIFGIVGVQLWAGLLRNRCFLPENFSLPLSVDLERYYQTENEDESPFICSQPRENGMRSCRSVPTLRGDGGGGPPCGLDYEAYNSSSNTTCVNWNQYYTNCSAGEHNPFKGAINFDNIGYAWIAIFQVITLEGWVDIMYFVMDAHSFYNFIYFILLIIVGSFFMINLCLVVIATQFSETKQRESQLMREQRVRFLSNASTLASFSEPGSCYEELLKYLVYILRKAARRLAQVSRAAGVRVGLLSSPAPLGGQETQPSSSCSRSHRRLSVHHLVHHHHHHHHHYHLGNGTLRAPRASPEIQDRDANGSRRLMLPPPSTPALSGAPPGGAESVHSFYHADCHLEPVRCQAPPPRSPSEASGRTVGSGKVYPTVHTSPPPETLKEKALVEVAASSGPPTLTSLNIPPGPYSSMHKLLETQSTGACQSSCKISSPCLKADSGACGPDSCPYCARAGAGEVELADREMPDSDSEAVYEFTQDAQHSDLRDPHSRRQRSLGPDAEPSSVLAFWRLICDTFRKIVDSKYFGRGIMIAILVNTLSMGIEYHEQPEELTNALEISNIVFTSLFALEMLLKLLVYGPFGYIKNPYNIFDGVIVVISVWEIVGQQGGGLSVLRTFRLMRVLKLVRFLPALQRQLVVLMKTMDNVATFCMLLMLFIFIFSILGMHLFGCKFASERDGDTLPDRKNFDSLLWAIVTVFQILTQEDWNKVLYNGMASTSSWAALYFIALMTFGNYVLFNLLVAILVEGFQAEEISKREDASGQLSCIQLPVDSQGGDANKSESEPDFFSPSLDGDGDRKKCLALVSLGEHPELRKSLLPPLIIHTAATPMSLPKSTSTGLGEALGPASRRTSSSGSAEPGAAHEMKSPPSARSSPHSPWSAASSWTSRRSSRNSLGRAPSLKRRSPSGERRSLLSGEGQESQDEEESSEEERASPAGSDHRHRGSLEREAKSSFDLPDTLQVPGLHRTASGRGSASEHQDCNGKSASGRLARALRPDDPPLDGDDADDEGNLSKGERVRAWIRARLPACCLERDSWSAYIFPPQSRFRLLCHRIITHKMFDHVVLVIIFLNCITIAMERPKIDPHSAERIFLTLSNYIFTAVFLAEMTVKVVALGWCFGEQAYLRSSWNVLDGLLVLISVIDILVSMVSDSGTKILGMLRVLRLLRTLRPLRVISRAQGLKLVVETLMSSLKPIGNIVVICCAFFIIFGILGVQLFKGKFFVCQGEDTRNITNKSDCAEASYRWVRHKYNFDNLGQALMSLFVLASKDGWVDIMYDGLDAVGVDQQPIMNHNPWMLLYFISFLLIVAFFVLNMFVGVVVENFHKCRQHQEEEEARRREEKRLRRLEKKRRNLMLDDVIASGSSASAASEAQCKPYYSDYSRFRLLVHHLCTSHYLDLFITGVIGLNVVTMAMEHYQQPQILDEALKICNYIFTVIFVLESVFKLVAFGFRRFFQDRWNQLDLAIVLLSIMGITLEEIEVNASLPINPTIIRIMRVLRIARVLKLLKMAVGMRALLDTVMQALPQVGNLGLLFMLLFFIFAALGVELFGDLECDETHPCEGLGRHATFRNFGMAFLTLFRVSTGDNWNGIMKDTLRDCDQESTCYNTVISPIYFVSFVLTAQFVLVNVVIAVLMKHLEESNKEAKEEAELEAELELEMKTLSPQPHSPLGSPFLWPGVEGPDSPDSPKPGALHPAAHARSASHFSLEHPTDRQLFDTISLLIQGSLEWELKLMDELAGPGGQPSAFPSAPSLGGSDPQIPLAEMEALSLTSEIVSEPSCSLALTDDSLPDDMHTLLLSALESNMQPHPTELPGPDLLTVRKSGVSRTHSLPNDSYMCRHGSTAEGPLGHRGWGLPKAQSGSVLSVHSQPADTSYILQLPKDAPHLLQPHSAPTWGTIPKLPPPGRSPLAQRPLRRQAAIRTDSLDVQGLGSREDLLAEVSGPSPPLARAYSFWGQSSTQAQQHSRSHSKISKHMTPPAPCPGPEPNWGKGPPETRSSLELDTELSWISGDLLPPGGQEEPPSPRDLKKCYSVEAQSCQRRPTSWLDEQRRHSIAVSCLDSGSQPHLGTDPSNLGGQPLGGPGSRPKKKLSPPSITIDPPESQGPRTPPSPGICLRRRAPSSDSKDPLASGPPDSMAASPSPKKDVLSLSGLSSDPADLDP
Description: as §1, §2

[3] = target: T3, Human Cav2.2 channels (Homo sapiens, UniProt Q00975); experiment: Block of Cav2.2 (N-type) channels expressed in HEK293 cells; details: for inhibition at 10 µM / inhibition at 30 µM: HEK293; for inhibition at 10 µM: read-out: Cav 2.2 % Inh @ 10 μM; for inhibition at 30 µM: read-out: Cav 2.2 % Inh @ 30 μM; for IC50: read-out: Cav 2.2 IC50
T3 construct: expressed in transfected cells
Excerpt: Human Cav2.2 channels were stably expressed in HEK293 cells along with alpha2-delta and beta subunits of voltage-gated calcium channels. An inwardly rectifying potassium channel (Kir2.3) was also expressed in these cells to allow more precise control of the cell membrane potential by extracellular potassium concentration. At low bath potassium concentration, the membrane potential is relatively negative, and is depolarized as the bath potassium concentration is raised. In this way, the bath potassium concentration can be used to regulate the voltage-dependent conformations of the channels. Compounds are incubated with cells in the presence of low (4 mM) potassium or elevated (12, 25 or 30 mM) potassium to determine the affinity for compound block of resting (closed) channels at 4 mM potassium or affinity for block of open and inactivated channels at 12, 25 or 30 mM potassium. After the incubation period, Cav2.2 channel opening is triggered by addition of higher concentration of potassium (70 mM final concentration) to further depolarize the cell. The degree of state-dependent block can be estimated from the inhibitory potency of compounds after incubation in different potassium concentrations.
Calcium influx through Cav2.2 channels is determined using a calcium sensitive fluorescent dye in combination with a fluorescent plate reader. Fluorescent changes were measured with either a VIPR (Aurora Instruments) or FLIPR (Molecular Devices) plate reader.
Protocol • 1. Seed cells in Poly-D-Lysine Coated 96 or 384-well plate and keep in a 37° C.-10% CO2 incubator overnight • 2. Remove media, wash cells with 0.2 mL (96-well plate) or 0.05 mL (384-well plate) Dulbecco's Phosphate Buffered Saline (D-PBS) with calcium & magnesium (Invitrogen; 14040) • 3. Add 0.1 mL (96-well plate) or 0.05 mL (384-well plate) of 4 μM fluor-4 (Molecular Probes; F-14202) and 0.02% Pluronic acid (Molecular Probes; P-3000) prepared in D-PBS with calcium & magnesium (Invitrogen; 14040) supplemented with 10 mM Glucose & 10 mM Hepes/NaOH; pH 7.4 • 4. Incubate in the dark at 25° C. for 60-70 min • 5. Remove dye, wash cells with 0.1 mL (96-well plate) or 0.06 mL (384-well plate) of 4, 12, 25, or 30 mM Potassium Pre-polarization Buffer (PPB) • 6. Add 0.1 mL (96-well plate) or 0.03 mL (384-well plate) of 4, 12, 25, 30 mM PPB with or without test compound • 7. Incubate in the dark at 25° C. for 30 min • 8. Read cell plate on VIPR instrument, Excitation=480 nm, Emission=535 nm • 9. With VIPR continuously reading, add 0.1 mL (96-well plate) or 0.03 mL (384-well plate) of Depolarization Buffer (DB), which is 2× the final assay concentration, to the cell plate.
Block of N-type calcium channels is evaluated utilizing the IonWorks HT 384 well automated patch clamp electrophysiology device. This instrument allows synchronous recording from 384 well (48 at a time). A single whole cell recording is made in each well. Whole cell recording is established by perfusion of the internal compartment with amphotericin B.
The voltage protocol is designed to detect use-dependent block. A 2 Hz train of depolarizations (twenty 25 ms steps to +20 mV). The experimental sequence consists of a control train (pre-compound), incubation of cells with compound for 5 minutes, followed by a second train (post-compound). Use dependent block by compounds is estimated by comparing fractional block of the first pulse in the train to block of the 20th pulse.
Parallel patch clamp electrophysiology is performed using IonWorks HT (Molecular Devices Corp) essentially as described by Kiss and colleagues (Kiss et al. 2003; Assay and Drug Development Technologies, 1:127-135). Briefly, a stable HEK 293 cell line (referred to as CBK) expressing the N-type calcium channel subunits (α1B, α2δ, β3a) and an inwardly rectifying potassium channel (Kir2.3) is used to record barium current through the N-type calcium channel. Cells are grown in T75 culture plates to 60-90% confluence before use. […]

T1 sequence (O95180 whole entry): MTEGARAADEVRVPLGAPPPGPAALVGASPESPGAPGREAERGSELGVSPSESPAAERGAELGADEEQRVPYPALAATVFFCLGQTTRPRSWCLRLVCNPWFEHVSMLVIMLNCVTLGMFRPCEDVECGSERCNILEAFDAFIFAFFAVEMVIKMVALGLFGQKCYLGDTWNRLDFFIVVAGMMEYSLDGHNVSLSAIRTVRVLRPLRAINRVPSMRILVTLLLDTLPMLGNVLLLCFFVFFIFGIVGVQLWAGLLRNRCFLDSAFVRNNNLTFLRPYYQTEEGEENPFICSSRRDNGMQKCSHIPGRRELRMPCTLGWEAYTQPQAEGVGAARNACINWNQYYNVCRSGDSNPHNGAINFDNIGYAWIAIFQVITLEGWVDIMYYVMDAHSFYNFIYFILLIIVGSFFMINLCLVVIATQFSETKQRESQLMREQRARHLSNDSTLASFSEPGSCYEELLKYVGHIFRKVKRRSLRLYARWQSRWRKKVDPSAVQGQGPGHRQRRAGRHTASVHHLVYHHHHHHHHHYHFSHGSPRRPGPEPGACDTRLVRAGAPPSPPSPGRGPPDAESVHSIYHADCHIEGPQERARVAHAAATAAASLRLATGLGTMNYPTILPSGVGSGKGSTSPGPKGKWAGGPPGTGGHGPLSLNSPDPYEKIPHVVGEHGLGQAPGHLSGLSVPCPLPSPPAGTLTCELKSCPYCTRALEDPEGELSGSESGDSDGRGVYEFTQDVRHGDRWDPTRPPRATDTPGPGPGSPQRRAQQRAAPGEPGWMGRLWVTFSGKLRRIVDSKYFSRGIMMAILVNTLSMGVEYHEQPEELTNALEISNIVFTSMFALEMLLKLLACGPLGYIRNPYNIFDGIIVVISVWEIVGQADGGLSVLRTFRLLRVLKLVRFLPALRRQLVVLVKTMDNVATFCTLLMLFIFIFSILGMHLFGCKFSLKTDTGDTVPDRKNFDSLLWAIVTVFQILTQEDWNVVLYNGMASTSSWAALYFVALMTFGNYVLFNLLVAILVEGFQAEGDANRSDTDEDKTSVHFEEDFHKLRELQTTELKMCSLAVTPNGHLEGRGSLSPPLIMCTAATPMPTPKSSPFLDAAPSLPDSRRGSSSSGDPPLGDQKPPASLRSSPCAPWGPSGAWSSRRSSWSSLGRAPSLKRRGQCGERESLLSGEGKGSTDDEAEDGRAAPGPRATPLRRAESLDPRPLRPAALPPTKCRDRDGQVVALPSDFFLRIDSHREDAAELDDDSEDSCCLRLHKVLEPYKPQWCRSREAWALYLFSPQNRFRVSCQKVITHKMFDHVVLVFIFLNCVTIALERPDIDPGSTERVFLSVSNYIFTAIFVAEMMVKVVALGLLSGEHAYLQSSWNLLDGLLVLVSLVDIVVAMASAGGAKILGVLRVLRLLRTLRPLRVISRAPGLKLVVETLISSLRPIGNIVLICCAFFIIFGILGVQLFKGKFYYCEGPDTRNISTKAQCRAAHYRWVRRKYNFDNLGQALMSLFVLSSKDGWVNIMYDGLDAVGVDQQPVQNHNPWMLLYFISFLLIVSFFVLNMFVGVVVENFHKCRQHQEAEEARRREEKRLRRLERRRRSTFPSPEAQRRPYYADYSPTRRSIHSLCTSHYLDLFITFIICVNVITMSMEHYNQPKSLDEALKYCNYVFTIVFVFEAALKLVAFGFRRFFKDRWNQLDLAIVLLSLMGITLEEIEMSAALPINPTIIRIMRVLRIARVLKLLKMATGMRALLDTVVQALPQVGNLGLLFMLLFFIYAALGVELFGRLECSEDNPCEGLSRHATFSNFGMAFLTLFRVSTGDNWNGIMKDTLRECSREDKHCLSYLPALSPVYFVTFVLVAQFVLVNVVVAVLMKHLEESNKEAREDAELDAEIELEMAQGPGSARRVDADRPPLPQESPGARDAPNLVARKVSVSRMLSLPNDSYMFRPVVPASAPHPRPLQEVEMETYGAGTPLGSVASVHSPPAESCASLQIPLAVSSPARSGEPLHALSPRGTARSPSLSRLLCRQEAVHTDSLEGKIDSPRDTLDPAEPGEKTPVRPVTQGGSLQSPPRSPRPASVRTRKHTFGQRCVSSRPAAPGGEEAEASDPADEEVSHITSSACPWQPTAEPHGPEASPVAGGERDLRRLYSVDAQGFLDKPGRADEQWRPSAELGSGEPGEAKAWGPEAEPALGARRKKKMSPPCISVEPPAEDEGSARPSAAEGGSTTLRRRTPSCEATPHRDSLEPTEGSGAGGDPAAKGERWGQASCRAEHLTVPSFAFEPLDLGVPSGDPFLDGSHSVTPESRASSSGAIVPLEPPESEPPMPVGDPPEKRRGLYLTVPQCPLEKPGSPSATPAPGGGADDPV

| IC50 [1] [nM] | IC50 [2] [nM] | inhibition at 10 µM [3] [%] | inhibition at 30 µM [3] [%] | IC50 [3] [nM] | Compound |
| --- | --- | --- | --- | --- | --- |
| 790 | 890 | 92 | 97 | 2210 | CC(C)(C)c1cc(N2CCN(C(=O)c3ccc(F)cc3)CC2)cc(C(C)(C)C)c1 [Compound 4, (4-(3,5-di-tert-butylphenyl)piperazin-1-yl)(4-fluorophenyl)methanone] |
| 800 | 490 | 101 | 104 | 1480 | CC(C)(C)c1cc(N2CCN(C(=O)c3ccc(OCC(F)(F)F)nc3)CC2)cc(C(C)(C)C)c1 [Compound 47, (4-(3,5-di-tert-butylphenyol)piperazin-1-yl)(6-(2,2,2-trifluoroethoxy)pyridin-3-yl)methanone] |
| 1150 | 970 | 91 | 100 | 1300 | Cc1nc(C(F)(F)F)ccc1C(=O)N1CCN(c2cc(C(C)(C)C)cc(C(C)(C)C)c2)CC1 [Compound 30, (4-(3,5-di-tert-butylphenyl)piperazin-1-yl)(2-methyl-6-(trifluoromethyl)pyridin-3-yl)methanone] |
| 690 | 680 | 96 | 90 | 1460 | CC(C)(C)c1cc(N2CCN(C(=O)c3ccc(F)c(C(F)(F)F)c3)CC2)cc(C(C)(C)C)c1 [Compound 16, (4-(3,5-di-tert-butylphenyl)piperazin-1-yl)(4-fluoro-3-(trifluoromethyl)phenyl)methanone] |

Further lines, the compound ahead of its results:

| Compound | IC50 [1] [nM] | IC50 [2] [nM] | inhibition at 10 µM [3] [%] | inhibition at 30 µM [3] [%] | IC50 [3] [nM] |
| --- | --- | --- | --- | --- | --- |
| Cc1nc(C)c(C(=O)N2CCN(c3cc(C(C)(C)C)cc(C(C)(C)C)c3)CC2)s1 [Compound 32, (4-(3,5-di-tert-butylphenyl)piperazin-1-yl)(2,4-dimethylthiazol-5-yl)methanone] | 1150 | 1090 | 98 | 98 | 780 |
| Cc1nc(C(F)(F)F)c(C(=O)N2CCN(c3cc(C(C)(C)C)cc(C(C)(C)C)c3)CC2)s1 [Compound 41, (4-(3,5-di-tert-butylphenyl)piperazin-1-yl)(2-methyl-4-(trifluoromethyl)thiazol-5-yl)methanone] | 1410 | 1510 | 102 | 107 | 830 |
| CC(C)(C)C(=O)Nc1ccncc1C(=O)N1CCN(c2cc(C(C)(C)C)cc(C(C)(C)C)c2)CC1 [Compound 7, N-(3-(4-(3,5-di-tert-butylphenyl)piperazine-1-carbonyl)pyridin-4-yl)pivalamide] | 660 | 470 | 97 | 96 | 300 |
| Cc1ccc(C(=O)N2CCN(c3cc(C(C)(C)C)cc(C(C)(C)C)c3)CC2)s1 [Compound 28, (4-(3,5-di-tert-butylphenyl)piperazin-1-yl)(5-methylthiophen-2-yl)methanone] | 960 | 800 | 87 | 101 | 2400 |
| CC(C)c1cc(C(=O)N2CCN(c3cc(C(C)(C)C)cc(C(C)(C)C)c3)CC2)cs1 [Compound 23, (4-(3,5-di-tert-butylphenyl)piperazin-1-yl)(5-isopropylthiophen-3-yl)methanone] | 870 | 800 | 90 | 97 | 1400 |
| Cc1cccc(C(=O)N2CCN(c3cc(C(C)(C)C)cc(C(C)(C)C)c3)CC2)n1 [Compound 49, (4-(3,5-di-tert-butylphenyl)piperazin-1-yl)(6-methylpyridin-2-yl)methanone] | 1880 | 1520 | 102 | 105 | 1660 |
| CC(C)(C)C(=O)Nc1ncccc1C(=O)N1CCN(c2cc(C(C)(C)C)cc(C(C)(C)C)c2)CC1 [Compound 8, N-(3-(4-(3,5-di-tert-butylphenyl)piperazine-1-carbonyl)pyridin-2-yl)pivalamide] | 710 | 550 | 94 | 95 | 650 |
